In brackets after ≈: the same amount, converted by molar mass. Where two headings read alike, the source gives them in different places.
How the values were obtained:
[1] = system: S. aureus Sa26 ATCC 25923; test: Antibacterial activity assay (MIC), S. aureus Sa26; format: cell-based; details: Staphylococcus aureus
[2] = system: S. aureus Sa1 ATCC 13709; test: microbe, parasite or virus in culture; format: cell-based; details: Staphylococcus aureus, ATCC13709, read-out: MIC Sa1
[3] = system: E. coli Ec113 efflux pump KO; test: microbe, parasite or virus in culture; format: cell-based; details: Escherichia coli, read-out: MIC Ec113 efflux pump KO
[4] = system: E. coli Ec50 efflux pump KO; test: microbe, parasite or virus in culture; format: cell-based; details: Escherichia coli, read-out: MIC Ec50 efflux pump KO
[5] = system: S. aureus Sa4 NCTC 6571; test: Antibacterial activity assay (MIC), S. aureus Sa4; format: cell-based; details: Staphylococcus aureus, NCTC6571, read-out: MIC Sa4
[6] = system: H. influenza Hi106 ATCC 51907; test: organism not typed; format: cell-based; details: read-out: MIC Hi106
[7] = system: Methicillin Resistant S. aureus Sa2 (MRSA); format: in vivo; details: Groin Sa, Study 2; 50 mg/kg PO BID; sample time 31 h post infection
[8] = system: E. coli Ec1 ATCC 25922; test: Antibacterial activity assay (MIC), E. coli Ec1; format: cell-based; details: Escherichia coli, ATCC25922, read-out: MIC Ec1
[9] = system: H. influenza Hi3 ATCC 31517; test: organism not typed; format: cell-based; details: read-out: MIC Hi3
[10] = system: H. influenza Hi47 clinical strain, Ampicillin Resistant; test: organism not typed; format: cell-based; details: read-out: MIC Hi47
[11] = target: DNA Polymerase IIIα (DnaE) from Staphylococcus aureus (Staphylococcus aureus, UniProt Q6GG04); test: biochemical
Chain of DNA Polymerase IIIα (DnaE) from Staphylococcus aureus (Q6GG04 1-1022): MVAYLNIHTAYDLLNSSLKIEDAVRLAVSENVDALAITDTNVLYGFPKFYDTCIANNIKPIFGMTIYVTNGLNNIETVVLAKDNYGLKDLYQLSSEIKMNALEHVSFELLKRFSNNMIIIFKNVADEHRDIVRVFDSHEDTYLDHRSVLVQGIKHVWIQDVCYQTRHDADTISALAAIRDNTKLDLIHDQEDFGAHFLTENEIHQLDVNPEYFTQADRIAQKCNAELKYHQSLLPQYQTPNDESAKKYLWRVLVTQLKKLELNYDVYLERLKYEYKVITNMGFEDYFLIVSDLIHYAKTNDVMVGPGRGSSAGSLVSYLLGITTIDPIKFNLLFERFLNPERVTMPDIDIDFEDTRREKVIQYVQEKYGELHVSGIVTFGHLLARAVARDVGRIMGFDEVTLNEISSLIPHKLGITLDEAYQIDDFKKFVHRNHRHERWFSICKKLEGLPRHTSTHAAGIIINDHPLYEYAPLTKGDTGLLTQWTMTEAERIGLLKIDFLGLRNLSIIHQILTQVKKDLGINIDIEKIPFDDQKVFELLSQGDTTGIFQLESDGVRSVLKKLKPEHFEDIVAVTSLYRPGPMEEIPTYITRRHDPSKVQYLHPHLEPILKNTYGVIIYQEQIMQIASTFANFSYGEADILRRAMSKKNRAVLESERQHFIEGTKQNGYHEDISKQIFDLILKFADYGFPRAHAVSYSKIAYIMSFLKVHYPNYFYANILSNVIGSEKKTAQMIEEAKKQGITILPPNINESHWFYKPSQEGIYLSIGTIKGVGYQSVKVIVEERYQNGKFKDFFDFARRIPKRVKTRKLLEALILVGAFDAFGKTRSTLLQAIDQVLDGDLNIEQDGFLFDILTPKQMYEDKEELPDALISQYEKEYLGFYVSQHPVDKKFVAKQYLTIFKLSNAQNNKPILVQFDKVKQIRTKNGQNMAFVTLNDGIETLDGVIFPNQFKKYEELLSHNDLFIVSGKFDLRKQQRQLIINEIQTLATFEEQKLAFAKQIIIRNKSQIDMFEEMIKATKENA

[12] = target: DNA III Polymerase E (Escherichia coli, UniProt P10443); test: In vitro activity against DNA III Polymerase E, E. coli; format: biochemical; details: DNA polymerase III, E. coli; read-out: IC50 semiquantitative scoring, E. coli
Chain of DNA III Polymerase E (P10443 whole entry): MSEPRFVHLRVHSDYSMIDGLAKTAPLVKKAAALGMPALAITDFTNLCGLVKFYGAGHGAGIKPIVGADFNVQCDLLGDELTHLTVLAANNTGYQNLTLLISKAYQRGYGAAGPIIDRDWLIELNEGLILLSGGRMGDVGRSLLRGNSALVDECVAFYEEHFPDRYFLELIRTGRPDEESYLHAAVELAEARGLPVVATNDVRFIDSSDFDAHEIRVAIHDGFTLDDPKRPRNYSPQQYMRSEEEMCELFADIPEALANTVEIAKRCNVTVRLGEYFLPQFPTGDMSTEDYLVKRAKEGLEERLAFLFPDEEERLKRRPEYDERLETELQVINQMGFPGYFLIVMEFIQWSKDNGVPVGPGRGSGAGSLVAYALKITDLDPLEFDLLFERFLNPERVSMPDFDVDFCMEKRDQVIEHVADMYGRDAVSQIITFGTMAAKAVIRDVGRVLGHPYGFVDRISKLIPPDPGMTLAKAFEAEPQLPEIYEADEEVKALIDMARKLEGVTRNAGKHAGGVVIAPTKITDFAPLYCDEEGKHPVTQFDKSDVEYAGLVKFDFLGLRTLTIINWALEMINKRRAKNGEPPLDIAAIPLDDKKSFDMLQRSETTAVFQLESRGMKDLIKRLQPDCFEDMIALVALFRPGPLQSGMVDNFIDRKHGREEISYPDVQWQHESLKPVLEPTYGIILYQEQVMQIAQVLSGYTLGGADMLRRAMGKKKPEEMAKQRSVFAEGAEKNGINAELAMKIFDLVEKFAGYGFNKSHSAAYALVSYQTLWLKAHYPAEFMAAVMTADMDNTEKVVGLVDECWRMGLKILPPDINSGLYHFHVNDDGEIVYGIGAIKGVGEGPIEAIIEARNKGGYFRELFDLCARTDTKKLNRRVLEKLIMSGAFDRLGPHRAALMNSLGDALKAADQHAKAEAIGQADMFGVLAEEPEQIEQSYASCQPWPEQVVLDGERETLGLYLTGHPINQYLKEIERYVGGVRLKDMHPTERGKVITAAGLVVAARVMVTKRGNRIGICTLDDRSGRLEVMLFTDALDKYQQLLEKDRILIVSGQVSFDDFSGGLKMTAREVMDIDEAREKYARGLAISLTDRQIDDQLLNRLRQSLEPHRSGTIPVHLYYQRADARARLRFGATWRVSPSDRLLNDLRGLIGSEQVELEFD
Outline: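 Recombinant enzyme (0.47 μg/mL diluted stock) in 20 mM Tris pH7.5, 8 mM DTT, 10 mM MgOAc, 0.05% CHAPS met compound series from 100 μM top, 1/5 steps. Activated calf thymus DNA, dNTPs and [α-33P]-dTTP substrate were added, and incubation ran 120 min at 30° C. IC50 came from filter-captured incorporated radioactivity versus controls.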

[13] = system: S. aureus Sa2 clinical strain NCIMB 41953, MRSA; test: microbe, parasite or virus in culture; format: cell-based; details: Staphylococcus aureus, read-out: MIC Sa2
[14] = system: Methicillin Resistant S. aureus Sa2 (MRSA); test: animal or person; format: in vivo; details: lung
[15] = system: H. influenza Hi10 clinical strain; test: organism not typed; format: cell-based; details: read-out: MIC Hi10
[16] = system: Methicillin Resistant S. aureus (MRSA); test: Neutropenic mouse thigh infection model; details: Thigh Sa
[17] = Study 2, 50 mg/kg IP BID, sample time 7 h PI
[18] = Study 4, 5 mg/kg IP BID, sample time 24 h PI
[19] = Study 4, 15 mg/kg IP BID, sample time 24 h PI
[20] = Study 4, 50 mg/kg IP BID, sample time 24 h PI
[21] = Study 5, 5 mg/kg IV BID, sample time 24 h PI
[22] = Study 6, 25 mg/kg IV BID, sample time 24 h PI
[23] = Study 7, 15 mg/kg PO BID, sample time 24 h PI
[24] = Study 7, 50 mg/kg PO BID, sample time 24 h PI
[25] = Study 8, 50 mg/kg PO QD, sample time 48 h PI

## COC[C@@H]1[C@@H](O)[C@@H]2[C@H]3C=C[C@@H]4[C@@H](COC)C(=O)O[C@H]([C@H](O)COC)[C@H](C)/C=C(\C)[C@@]24O[C@H]3[C@@H]1OC(=O)c1ccc[nH]1 [Compound 2, 8-O-1H-pyrrole-2′-carbonylbranimycin]
[1]; ATCC25923, read-out: MIC Sa26
  MIC: 1 µg/mL (≈ 1.74 µM)
[1]; ATCC25923, read-out: MIC Sa26 + 10% SH
  MIC: 1 µg/mL
[1]; ATCC25923, read-out: MIC Sa26 + 50% SH
  MIC: 2 µg/mL
[2]
  MIC: 1 µg/mL (≈ 1.74 µM)
[3]
  MIC: 1 µg/mL (≈ 1.74 µM)
[4]
  MIC: 16 µg/mL (≈ 27.8 µM)
[5]
  MIC: 1 µg/mL (≈ 1.74 µM)
[6]
  MIC: > 64 µg/mL
[7]
  Active: Y
  Log reduction vs. untreated: −2.52
[8]
  MIC: > 64 µg/mL
[9]
  MIC: > 64 µg/mL
[10]
  MIC: > 64 µg/mL
[11]
  IC50: 1.74 to 1740 nM
[12]
  IC50: 1740 to 17400 nM
[13]
  MIC: 0.5 µg/mL (≈ 0.869 µM)
[14]; Staphylococcus aureus, MRSA, in Mus musculus, po, 24 h, read-out: Log reduction vs. untreated, Study 1, 50 mg/kg PO BID, sample 24 h post infection
  log reduction at 50 mg/kg: 3.36
[14]; Staphylococcus aureus, MRSA, in Mus musculus, po, 24 h, read-out: Log reduction vs. untreated, Study 2, 15 mg/kg PO BID, sample 24 h post infection
  log reduction at 15 mg/kg: 3.91
[14]; Staphylococcus aureus, MRSA, in Mus musculus, po, 24 h, read-out: Log reduction vs. untreated, Study 2, 50 mg/kg PO BID, sample 24 h post infection
  log reduction at 50 mg/kg: 2.99
[14]; Staphylococcus aureus, MRSA, in Mus musculus, po, 24 h, read-out: Log reduction vs. untreated, Study 4, 6.25 mg/kg PO BID, sample 24 h post infection
  log reduction at 6.25 mg/kg: 0.04
[14]; Staphylococcus aureus, MRSA, in Mus musculus, po, 24 h, read-out: Log reduction vs. untreated, Study 4, 12.5 mg/kg PO BID, sample 24 h post infection
  log reduction at 12.5 mg/kg: 1.9
[14]; Staphylococcus aureus, MRSA, in Mus musculus, po, 24 h, read-out: Log reduction vs. untreated, Study 4, 25 mg/kg PO BID, sample 24 h post infection
  log reduction at 25 mg/kg: 3.48
[14]; Staphylococcus aureus, MRSA, in Mus musculus, po, 72 h, read-out: Log reduction vs. untreated, Study 5, 5 mg/kg PO QD, sample 72 h post infection
  log reduction at 5 mg/kg: 1.57
[14]; Staphylococcus aureus, MRSA, in Mus musculus, po, 72 h, read-out: Log reduction vs. untreated, Study 5, 15 mg/kg PO QD, sample 72 h post infection
  log reduction at 15 mg/kg: 3.62
[14]; Staphylococcus aureus, MRSA, in Mus musculus, po, 72 h, read-out: Log reduction vs. untreated, Study 6, 25 mg/kg PO QD, sample 72 h post infection
  log reduction at 25 mg/kg: 3.65
[14]; Study 1, 50 mg/kg PO BID, sample 24 h post infection
  Active: Y
[14]; Study 2, 15 mg/kg PO BID, sample 24 h post infection
  Active: Y
[14]; Study 2, 50 mg/kg PO BID, sample 24 h post infection
  Active: Y
[14]; Study 4, 6.25 mg/kg PO BID, sample 24 h post infection
  Active: N
[14]; Study 4, 12.5 mg/kg PO BID, sample 24 h post infection
  Active: Y
[14]; Study 4, 25 mg/kg PO BID, sample 24 h post infection
  Active: Y
[14]; Study 5, 5 mg/kg PO QD, sample 72 h post infection
  Active: Y
[14]; Study 5, 15 mg/kg PO QD, sample 72 h post infection
  Active: Y
[14]; Study 6, 25 mg/kg PO QD, sample 72 h post infection
  Active: Y
[15]
  MIC: > 64 µg/mL
[16]; [17]
  Active: Y
  Log reduction vs. untreated: −3.55
[16]; [18]
  Active: N
  Log reduction vs. untreated: −1.16
[16]; [19]
  Active: Y
  Log reduction vs. untreated: −3.32
[16]; [20]
  Active: Y
  Log reduction vs. untreated: −4.74
[16]; [21]
  Active: N
  Log reduction vs. untreated: −0.13
[16]; [22]
  Active: Y
  Log reduction vs. untreated: −3.92
[16]; [23]
  Active: Y
  Log reduction vs. untreated: −4.13
[16]; [24]
  Active: Y
  Log reduction vs. untreated: −6.72
[16]; [25]
  Active: Y
  Log reduction vs. untreated: −4.63

Source: US20160297830A1, “NOVEL COMPOUNDS USEFUL FOR THE TREATMENT OF BACTERIAL INFECTIOUS DISEASES” (GALAPAGOS NV, priority 2013, published 2016)
